These results are taken from ChEMBL document CHEMBL5210307, “Affinity Biochemical Literature for EUbOPEN Chemogenomics Library wave 3” (2023).

The target of one experiment is Fatty acid synthase (Homo sapiens, UniProt P49327). Nature of the experiment: Affinity Biochemical interaction (Human FAS enzyme assay (measuring consumption of NADPH)) EUB0000738a FASN. The arrangement: mode of action Negative control for BI 99179, recommended concentration 1 uM.
The nature of experiment [1]: Affinity Biochemical interaction (FLIPR assay) EUB0000337aCl P2RY14.
In experiment [2] the target is Hepatocyte growth factor receptor (Homo sapiens, UniProt P08581). Nature of the experiment: Affinity Biochemical interaction (Homogeneous Time Resolved Fluorescence Assay) EUB0000293b MET. The arrangement: mode of action Inhibitor, recommended concentration 1 uM.
For a further experiment, the target named is Ephrin type-B receptor 4 (Homo sapiens, UniProt P54760). Put plainly: Affinity Biochemical interaction (Microscale thermophoresis (MST) assay) EUB0000143b EPHB4. The arrangement: mode of action Inhibitor, recommended concentration 100 nM. Background: In MST a laser heats a spot of the sample, and binding alters the fluorescence response.
Experiment [3] addresses Oxidized purine nucleoside triphosphate hydrolase (Homo sapiens, UniProt P36639). Nature of the experiment: Affinity Biochemical interaction (PPiLight Biochemical Assay (full-length human NUDT1)) EUB0000587a NUDT1.
Experiment [4] has as its target Epithelial discoidin domain-containing receptor 1 (Homo sapiens, UniProt Q08345). Nature of the experiment: Affinity Biochemical interaction (Radiometric assay (10 µM ATP, Reaction Biology)) EUB0000156b DDR1. The arrangement: mode of action Negative control for DDR-TRK-1 (D2202-1), recommended concentration 1 uM.
The target of experiment [5] is High affinity nerve growth factor receptor (Homo sapiens, UniProt P04629). Put plainly: Affinity Biochemical interaction (Radiometric assay (10 µM ATP, Reaction Biology)) EUB0000156b NTRK1. The arrangement: mode of action Negative control for DDR-TRK-1 (D2202-1), recommended concentration 1 uM.
High affinity nerve growth factor receptor, sequence (P04629 whole entry, the tested form may be a part): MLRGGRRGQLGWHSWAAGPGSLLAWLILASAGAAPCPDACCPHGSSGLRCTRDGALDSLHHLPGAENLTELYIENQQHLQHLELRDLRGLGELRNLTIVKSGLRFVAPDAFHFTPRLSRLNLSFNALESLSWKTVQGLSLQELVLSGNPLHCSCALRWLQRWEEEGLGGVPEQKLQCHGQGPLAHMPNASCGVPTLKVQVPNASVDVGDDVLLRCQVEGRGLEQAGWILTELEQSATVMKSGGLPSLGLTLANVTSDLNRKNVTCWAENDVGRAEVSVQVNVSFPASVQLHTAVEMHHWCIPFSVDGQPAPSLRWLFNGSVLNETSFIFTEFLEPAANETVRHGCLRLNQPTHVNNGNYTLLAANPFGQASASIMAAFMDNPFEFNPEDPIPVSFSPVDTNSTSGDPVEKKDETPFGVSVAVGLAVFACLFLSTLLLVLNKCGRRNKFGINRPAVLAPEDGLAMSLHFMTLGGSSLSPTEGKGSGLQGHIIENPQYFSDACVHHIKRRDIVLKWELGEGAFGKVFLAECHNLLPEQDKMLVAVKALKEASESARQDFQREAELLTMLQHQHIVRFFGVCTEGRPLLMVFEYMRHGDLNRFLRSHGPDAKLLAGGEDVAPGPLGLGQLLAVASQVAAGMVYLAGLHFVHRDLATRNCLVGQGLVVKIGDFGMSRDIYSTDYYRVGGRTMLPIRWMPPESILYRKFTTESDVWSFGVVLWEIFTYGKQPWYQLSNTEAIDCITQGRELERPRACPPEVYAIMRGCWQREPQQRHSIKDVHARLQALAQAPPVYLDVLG
Experiment [6] deals with Discoidin domain-containing receptor 2 (Homo sapiens, UniProt Q16832). Nature of the experiment: Affinity Biochemical interaction (Radiometric assay (10 µM ATP, Reaction Biology)) EUB0000156b DDR2. The arrangement: mode of action Negative control for DDR-TRK-1 (D2202-1), recommended concentration 1 uM.
Experiment [7] addresses NT-3 growth factor receptor (Homo sapiens, UniProt Q16288). Nature of the experiment: Affinity Biochemical interaction (Radiometric assay (10 µM ATP, Reaction Biology)) EUB0000156b NTRK3. The arrangement: mode of action Negative control for DDR-TRK-1 (D2202-1), recommended concentration 1 uM.
Experiment [8] deals with T1, Histone acetyltransferase p300 (Homo sapiens, UniProt Q09472).
T1 sequence (Q09472 whole entry): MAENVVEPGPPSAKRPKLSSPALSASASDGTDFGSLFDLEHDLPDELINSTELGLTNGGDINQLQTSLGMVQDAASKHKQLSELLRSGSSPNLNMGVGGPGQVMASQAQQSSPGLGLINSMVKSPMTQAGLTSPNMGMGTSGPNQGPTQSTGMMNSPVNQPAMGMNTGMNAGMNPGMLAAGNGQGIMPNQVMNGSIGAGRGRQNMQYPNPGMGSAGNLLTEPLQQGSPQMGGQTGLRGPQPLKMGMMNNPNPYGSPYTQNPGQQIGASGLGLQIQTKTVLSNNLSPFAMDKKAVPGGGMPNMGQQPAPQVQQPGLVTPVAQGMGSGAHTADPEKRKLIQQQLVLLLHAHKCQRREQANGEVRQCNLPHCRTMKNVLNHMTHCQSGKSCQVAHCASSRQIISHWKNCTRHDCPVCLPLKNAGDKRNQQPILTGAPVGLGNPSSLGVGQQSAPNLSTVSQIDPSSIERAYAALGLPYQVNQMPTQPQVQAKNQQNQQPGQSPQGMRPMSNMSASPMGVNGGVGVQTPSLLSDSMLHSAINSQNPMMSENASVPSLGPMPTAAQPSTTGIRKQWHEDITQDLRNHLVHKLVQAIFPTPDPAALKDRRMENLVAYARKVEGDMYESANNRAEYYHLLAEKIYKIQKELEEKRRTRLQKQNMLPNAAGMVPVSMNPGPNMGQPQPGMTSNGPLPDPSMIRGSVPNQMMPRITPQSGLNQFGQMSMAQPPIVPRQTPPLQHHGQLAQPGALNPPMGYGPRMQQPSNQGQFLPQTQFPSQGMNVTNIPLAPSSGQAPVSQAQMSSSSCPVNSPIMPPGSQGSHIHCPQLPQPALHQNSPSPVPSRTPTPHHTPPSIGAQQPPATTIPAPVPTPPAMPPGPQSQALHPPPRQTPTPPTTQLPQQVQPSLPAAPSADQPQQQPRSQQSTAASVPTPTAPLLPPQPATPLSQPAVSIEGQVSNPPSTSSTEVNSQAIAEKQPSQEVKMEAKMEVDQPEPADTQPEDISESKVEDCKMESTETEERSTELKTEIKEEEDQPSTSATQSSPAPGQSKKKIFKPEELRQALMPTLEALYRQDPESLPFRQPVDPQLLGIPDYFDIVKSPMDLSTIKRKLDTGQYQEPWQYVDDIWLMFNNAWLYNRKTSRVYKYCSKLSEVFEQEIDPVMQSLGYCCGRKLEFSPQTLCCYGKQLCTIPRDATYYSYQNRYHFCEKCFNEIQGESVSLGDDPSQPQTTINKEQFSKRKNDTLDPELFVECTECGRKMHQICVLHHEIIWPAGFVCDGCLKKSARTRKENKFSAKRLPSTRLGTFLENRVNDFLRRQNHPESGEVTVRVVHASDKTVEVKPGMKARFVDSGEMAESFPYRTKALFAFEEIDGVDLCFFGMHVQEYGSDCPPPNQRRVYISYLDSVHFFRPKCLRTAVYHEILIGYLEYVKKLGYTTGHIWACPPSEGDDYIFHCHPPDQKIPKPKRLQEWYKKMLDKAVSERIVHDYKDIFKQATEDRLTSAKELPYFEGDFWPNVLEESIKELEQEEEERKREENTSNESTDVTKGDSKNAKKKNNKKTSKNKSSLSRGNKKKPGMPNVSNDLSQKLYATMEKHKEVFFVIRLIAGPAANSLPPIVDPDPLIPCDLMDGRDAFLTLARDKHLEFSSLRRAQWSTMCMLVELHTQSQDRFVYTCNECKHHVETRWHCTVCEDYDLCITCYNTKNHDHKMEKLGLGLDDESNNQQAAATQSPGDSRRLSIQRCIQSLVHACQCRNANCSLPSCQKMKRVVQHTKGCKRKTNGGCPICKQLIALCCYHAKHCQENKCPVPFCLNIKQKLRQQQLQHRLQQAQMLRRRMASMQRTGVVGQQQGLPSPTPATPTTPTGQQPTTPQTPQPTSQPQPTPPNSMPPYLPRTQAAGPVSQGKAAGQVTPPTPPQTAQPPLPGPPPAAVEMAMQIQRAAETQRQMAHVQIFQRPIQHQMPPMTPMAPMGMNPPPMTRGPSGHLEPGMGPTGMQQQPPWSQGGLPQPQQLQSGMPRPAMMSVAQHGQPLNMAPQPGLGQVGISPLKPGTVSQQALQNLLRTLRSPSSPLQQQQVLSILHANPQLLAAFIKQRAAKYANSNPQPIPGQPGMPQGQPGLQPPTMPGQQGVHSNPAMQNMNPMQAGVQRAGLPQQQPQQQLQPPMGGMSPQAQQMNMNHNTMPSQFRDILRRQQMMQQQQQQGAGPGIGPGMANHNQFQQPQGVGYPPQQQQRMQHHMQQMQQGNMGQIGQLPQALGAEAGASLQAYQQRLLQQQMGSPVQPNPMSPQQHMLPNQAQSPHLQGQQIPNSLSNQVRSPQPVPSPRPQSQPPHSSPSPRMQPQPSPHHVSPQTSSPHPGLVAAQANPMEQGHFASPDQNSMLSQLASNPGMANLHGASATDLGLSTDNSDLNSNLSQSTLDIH
Experiment [9] concerns the target T2, Protein AF-9 (Homo sapiens, UniProt P42568).
T2 sequence (P42568 whole entry): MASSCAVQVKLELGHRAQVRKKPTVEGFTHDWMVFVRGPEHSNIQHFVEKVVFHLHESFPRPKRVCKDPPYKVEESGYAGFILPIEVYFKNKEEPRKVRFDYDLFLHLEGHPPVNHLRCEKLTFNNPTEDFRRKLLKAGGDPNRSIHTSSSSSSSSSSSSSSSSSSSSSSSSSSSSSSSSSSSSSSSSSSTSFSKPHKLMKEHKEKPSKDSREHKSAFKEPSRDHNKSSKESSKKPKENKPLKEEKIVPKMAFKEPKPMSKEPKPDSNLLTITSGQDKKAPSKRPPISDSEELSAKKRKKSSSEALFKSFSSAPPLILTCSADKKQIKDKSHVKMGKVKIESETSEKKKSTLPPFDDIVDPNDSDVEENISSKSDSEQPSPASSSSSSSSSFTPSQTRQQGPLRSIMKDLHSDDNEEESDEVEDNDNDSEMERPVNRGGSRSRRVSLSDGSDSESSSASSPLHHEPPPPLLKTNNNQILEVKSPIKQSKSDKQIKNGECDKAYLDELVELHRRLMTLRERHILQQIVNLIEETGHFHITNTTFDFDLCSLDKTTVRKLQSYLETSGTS
Nature of the experiment: Affinity Biochemical interaction (HTRF-based inhibition assay) EUB0000732a MLLT3. The arrangement: mode of action Negative control for PFI-6, recommended concentration 1 uM.

The target of experiment [10] is T3, Protein ENL (Homo sapiens, UniProt Q03111). Nature of the experiment: Affinity Biochemical interaction (HTRF-based inhibition assay) EUB0000732a MLLT1. The arrangement: mode of action Negative control for PFI-6, recommended concentration 1 uM.
T3 sequence (Q03111 whole entry): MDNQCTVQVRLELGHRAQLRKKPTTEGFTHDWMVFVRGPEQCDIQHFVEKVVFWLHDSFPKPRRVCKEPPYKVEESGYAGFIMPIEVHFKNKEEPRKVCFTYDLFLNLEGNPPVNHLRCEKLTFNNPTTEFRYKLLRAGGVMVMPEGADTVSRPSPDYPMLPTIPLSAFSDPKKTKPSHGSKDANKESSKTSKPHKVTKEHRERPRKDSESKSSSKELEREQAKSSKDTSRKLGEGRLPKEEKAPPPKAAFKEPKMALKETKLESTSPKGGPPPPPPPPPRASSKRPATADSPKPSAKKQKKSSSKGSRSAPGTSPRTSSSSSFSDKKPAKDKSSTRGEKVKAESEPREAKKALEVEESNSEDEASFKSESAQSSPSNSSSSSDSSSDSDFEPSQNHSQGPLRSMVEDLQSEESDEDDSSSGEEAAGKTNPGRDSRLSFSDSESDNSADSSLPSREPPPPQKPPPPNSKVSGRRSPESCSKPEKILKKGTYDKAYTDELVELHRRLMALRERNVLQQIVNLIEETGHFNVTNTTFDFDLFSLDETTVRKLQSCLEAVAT
Experiment [11] addresses RAC-alpha serine/threonine-protein kinase (Homo sapiens, UniProt P31749). Nature of the experiment: Affinity Biochemical interaction (HTFR assay) EUB0000721a AKT1.
Experiment [12] addresses T1, Histone acetyltransferase p300. Put plainly: Affinity Biochemical interaction (TR-FRET assay (BHC domains)) EUB0000326a EP300. Background: In TR-FRET formats the signal depends on donor and acceptor labels being close together.
Another experiment addresses Collagenase 3 (Homo sapiens, UniProt P45452). Put plainly: Affinity Biochemical interaction (FRET assay) EUB0000727a MMP13. The arrangement: mode of action Negative control for BI-4394, recommended concentration 100 nM.
Experiment [13] has as its target Protein farnesyltransferase subunit beta (Homo sapiens, UniProt P49356). Put plainly: Affinity Biochemical interaction (Scintillation proximity assay (SPA)) EUB0000289c FNTB. The arrangement: mode of action Inhibitor, recommended concentration 1 uM. A general note: SPA uses beads or plates that emit light when radiolabelled molecules are held near them.
For experiment [14], the target named is T2, Protein AF-9. Put plainly: Affinity Biochemical interaction (AlphaScreen assay) EUB0000283b MLLT3. The arrangement: mode of action Inhibitor, recommended concentration 1 uM.
Experiment [15] addresses T3, Protein ENL. Put plainly: Affinity Biochemical interaction (AlphaScreen assay) EUB0000283b MLLT1. The arrangement: mode of action Inhibitor, recommended concentration 1 uM.
A further experiment deals with Angiopoietin-1 receptor (Homo sapiens, UniProt Q02763). Nature of the experiment: Affinity Biochemical interaction (KdELECT (DiscoverX)) EUB0000703a TEK. The arrangement: mode of action Negative control for BAY-826, recommended concentration 100 nM.
Experiment [16] deals with Histone acetyltransferase KAT2B (Homo sapiens, UniProt Q92831). Nature of the experiment: Affinity Biochemical interaction (BROMOscan assay (DiscoverX)) EUB0000218c KAT2B. The arrangement: mode of action Inhibitor, recommended concentration 1 uM.
The target in experiment [17] is Calcium/calmodulin-dependent protein kinase kinase 2 (Homo sapiens, UniProt Q96RR4). Put plainly: Affinity Biochemical interaction (Enzymatic activity assay) EUB0000168b CAMKK2. The arrangement: mode of action Negative control for SGC-CAMKK2-1 (UNC-YL-36), recommended concentration 1 uM.
Calcium/calmodulin-dependent protein kinase kinase 2, sequence (Q96RR4 whole entry): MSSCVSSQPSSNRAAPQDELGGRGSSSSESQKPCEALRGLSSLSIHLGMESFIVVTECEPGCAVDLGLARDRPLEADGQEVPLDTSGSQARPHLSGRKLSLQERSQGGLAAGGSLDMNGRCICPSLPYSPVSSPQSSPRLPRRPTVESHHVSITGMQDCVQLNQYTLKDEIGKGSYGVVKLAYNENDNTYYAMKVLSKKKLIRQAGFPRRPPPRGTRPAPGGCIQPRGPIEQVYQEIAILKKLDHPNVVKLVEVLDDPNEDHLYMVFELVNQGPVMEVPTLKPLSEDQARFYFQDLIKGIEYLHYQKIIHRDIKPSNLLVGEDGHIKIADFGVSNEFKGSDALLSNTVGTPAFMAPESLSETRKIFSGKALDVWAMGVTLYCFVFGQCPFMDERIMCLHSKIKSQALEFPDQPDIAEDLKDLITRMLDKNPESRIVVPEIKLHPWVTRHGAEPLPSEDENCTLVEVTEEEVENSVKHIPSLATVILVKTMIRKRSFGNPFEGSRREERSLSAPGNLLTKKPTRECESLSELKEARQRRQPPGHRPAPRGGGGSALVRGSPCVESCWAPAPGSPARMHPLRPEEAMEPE
The target in experiment [18] is Nucleosome-remodeling factor subunit BPTF (Homo sapiens, UniProt Q12830). Nature of the experiment: Affinity Biochemical interaction (BioLayer Interferometry assay (BLI)) EUB0000254b BPTF. The arrangement: mode of action Negative control for NVS-BPTF-1, recommended concentration 1 uM.

Broadly, the IC50 is the concentration needed to halve the response being measured. A word on the Kd: it is the concentration at which binding is half-saturated. Read a high Kd as lower affinity.

The structures appear in SMILES notation. Some results are limits rather than exact numbers.

Protein farnesyltransferase subunit beta, sequence (P49356 whole entry): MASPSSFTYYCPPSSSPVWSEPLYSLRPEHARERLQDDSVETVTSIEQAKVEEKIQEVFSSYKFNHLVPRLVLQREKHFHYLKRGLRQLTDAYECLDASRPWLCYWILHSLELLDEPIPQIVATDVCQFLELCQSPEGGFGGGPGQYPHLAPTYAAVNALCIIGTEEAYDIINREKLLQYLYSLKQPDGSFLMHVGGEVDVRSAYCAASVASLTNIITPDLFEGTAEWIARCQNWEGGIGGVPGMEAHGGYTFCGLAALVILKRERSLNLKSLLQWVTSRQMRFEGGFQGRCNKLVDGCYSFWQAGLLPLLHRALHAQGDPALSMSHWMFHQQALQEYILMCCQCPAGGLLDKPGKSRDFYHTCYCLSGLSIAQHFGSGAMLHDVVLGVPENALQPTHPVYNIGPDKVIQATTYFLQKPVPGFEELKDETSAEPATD

At Fatty acid synthase, `CCC(=O)N[C@@H]1CC[C@H](C(=O)N(C)c2ccc(-c3nc4ccccc4o3)cc2)C1` [BI 99990] showed an IC50 of more than 3000 nM.
Take `Cc1c(C(=O)O)cc(-c2ccc(C3CCNCC3)cc2)c2ccc(-c3ccc(C(F)(F)F)cc3)cc12`: the IC50 in [1] turned out to be 4380 nM.
In the case of `CC1=C(C#N)C(c2ccc3[nH]nc(C)c3c2)C(C#N)=C(C)N1` [BAY-474], the IC50 in experiment [2] is less than 1 nM.
`Cc1ccc(C(=O)Nc2cccc(C(F)(F)F)c2)cc1Nc1nc(-c2cccnc2)nc2c1cnn2C` had an IC50 on Ephrin type-B receptor 4 of 6 nM.
With `CCNC(=O)c1cc2c(N3CCOC[C@@H]3C)ccnc2n1C`, the IC50 in experiment [3] was more than 20000 nM.
With `CN1CCN(Cc2cc(NC(=O)c3ccc4c(c3)CN(c3ccccc3)CC4)cc(C(F)(F)F)c2)CC1`, the IC50 in experiment [4] is 1730 nM; in experiment [5] it was 6250 nM; in experiment [6] it was more than 10000 nM; in [7] it was 8100 nM.
In the case of `CCC(=O)N1CCOc2c(cc(-c3ccc(OC)c(OC)c3)cc2OC[C@H]2CCCN(C)C2)C1`, binding in experiment [8] was put at a Kd of 625 nM. This counts as sub-micromolar.
As to `CN(C)C(=O)c1ccc(-c2cc(C(=O)N(C)C3CCCC3)no2)cc1O`, the IC50 on Protein AF-9 [9] and against Protein ENL [10] was more than 30000 nM throughout.
As to `C=CC(=O)Nc1ccc2[nH]c(=O)n(C3CCN(C(=O)c4ccc(-c5nc6cc[nH]c(=O)c6cc5-c5ccccc5)cc4)CC3)c2c1`, half-maximal inhibition in experiment [11] (IC50) required 9200 nM.
In [12], `CNC(=O)Nc1ccc2c(c1)[C@@]1(CC2)OC(=O)N(CC(=O)N(Cc2ccc(F)cc2)[C@@H](C)C(F)(F)F)C1=O` [A-486] registered a concentration for half-maximal inhibition (IC50) of more than 10000 nM.
Regarding `Cn1nc(C(=O)NCc2ccc(C(=O)O)cc2)cc1-c1ccc2[nH]ccc2c1` [BI 4395], the IC50 against Collagenase 3 is more than 26000 nM.
`Cn1cncc1[C@](O)(COc1ccc(C#N)cc1-c1ccc(OC(F)(F)F)cc1)c1ccc(C#N)cc1` [ABT-100]: the IC50 in experiment [13] is 0.05 nM.
Take `C[C@H]1CCCN1Cc1nc2cc(NC(=O)c3ccc4cnccc4c3)ccc2[nH]1`: the IC50 is 254 nM on Protein AF-9 [14] and 150 nM against Protein ENL [15].
Regarding `Cc1cc(NC(=O)c2cccc(S(F)(F)(F)(F)F)c2)cc(-n2ccn3nc(-c4cccnc4)cc23)c1` [BAY-309], on Angiopoietin-1 receptor, the Kd is more than 20000 nM.
As to `Cc1nnc2c3ccccc3c(N[C@@H](C)[C@H](c3ccccc3)N(C)C)nn12`, the IC50 in experiment [16] turned out to be 48 nM.
As to `O=C(O)c1ccc(-c2coc3ncc(-c4ccccc4)cc23)cc1Cl`, the IC50 in experiment [17] was more than 27000 nM.
The compound `Cc1c(Nc2ccc(S(=O)(=O)N3CCN(C)CC3)cc2F)nc2ccc(Nc3cnn(C4CC4)c3)cn2c1=O` gave a Kd in [18] of 1670 nM.
